For one experiment, the system named is cantharidin mouse ear. Kind of experiment: Mouse Cantharidin Screen (topical anti-inflammatory activity). The settings on record: applied with cantharidin, 24 h. The class given is in vivo. How it is done: Compounds were tested for topical anti-flammatory activity in a cantharidin mouse ear screen, modified from Swingle et al [Swingle, K. F., Reiter, M. J. and Schwartzmiller, D. H., Arch. Int. Pharmacodyn. (1981), 254, 168-176].
25 μg cantharidin (in 10 μl THF/MeOH) was applied to both ears. Compound, in the same solvent, was applied at the same time, to the left ear only. Ears were weighed 24 h after cantharidin application. Percentage inhibition of the acute inflammatory swelling refers to the increase in weight of left ears (catharidin plus compound) compared with solvent-treated negative controls, as a proportion of the increase in weight of right ears (cantharidin alone) over similar controls.

Experiment [1] deals with mouse sensitised to oxazolone. Kind of experiment: Mouse Oxazolone Screen (topical anti-inflammatory activity). The class given is in vivo. The note with it: 1 h before oxazolone challenge, ears weighed 24 h later. How it is done: Compounds were tested for topical anti-inflammatory activity in a screen using the mouse sensitised to oxazolone, by a method modified from that of Dietrich and Hess [Dietrich, F. M., and Hess, R., Int. Arch. Allergy, (1970), 38, 246-259].
Mice were sensitised with oxazolone (2 mg in 20 μl ethanol) on a shaved area of the abdomen. Five days later, the animals received 10 μl THF/MeOH (1:1 v/v) on the right ear, and the test compound in the same solvent on the left ear. One hour later, the animals were challenged with 100 μg oxazolone in 10 μl acetone on each ear. Ear weights were measured 24 h later. Percentage inhibition of the inflammatory swelling refers to the increase in weight of left ears (oxazolone plus compound) compared with solvent-treated negative controls, as a proportion of the increase in weight of right ears (oxazolone alone) over similar controls.

In another experiment the test system is 5-Lipoxygenase. Kind of experiment: RBL-1 5-Lipoxygenase Screen. The class given is biochemical. The note with it: 20 μM; 10,000 g supernatant from RBL-1 cells, 29° C. Here is the method: 5-Lipoxygenase enzyme was prepared as a 10,000 g supernatant from RBL-1 cells by the method of Jakschik [Jakschik, B. A., Sun, F. F., Lee, L. M. and Steinhoff, M. M., 1980, Biochem. Biophys. Res. Comm. 95, 103]. The 10,000 g supernatant was diluted with homogenization buffer to the equivalent of 1.5-2.5×10^7 cells ml^-1 and made 2 mM with respect to CaCl2. Aliquots of 0.5 ml were then dispensed into tubes, and incubated at 29° C. with 5 γl ethanol or compound in ethanol at the desired concentration for 2 min. Then [1-^14 C] arachidonic acid was added in buffer to give a final concentration of 6.3. μm and 0.2 μCi per incubation, and the reaction continued at 29° C. for 2 min. The reaction was terminated by adding 1 ml of acetone and cooling on ice. 0.5 ml of ice cold saline and 10 μl of 2N formic acid were added, and the mixture was extracted with 2×2 ml of chloroform. The extract was stored under N2 at -20° C. until analysis by chromatography. Activity was measured as the percentage of total radioactivity found in 5-HETE and 5,12-diHETE, and inhibition calculated as the decrease in formation of the sum of these two species in compound-treated incubates relative to control incubates.

As for `COCCNc1cc(C)nc2c[nH]nc12` [Example 4], the “% Inhibition (acute inflammatory swelling, ear weight)” value in the experiment with cantharidin mouse ear (200 μg/ear) is listed as 57%. Besides, in experiment [1] (200 μg/ear), the “% Inhibition (inflammatory swelling, ear weight)” value is reported as 52%.

In the case of `Cc1cc(NCCCN(C)C)c2[nH]ncc2n1` [Example 6, 7-[3-Dimethylaminopropylamino]-5-methyl-1H-pyrazolo[4,3-b]pyridine], the “% Inhibition (acute inflammatory swelling, ear weight)” value in the experiment on cantharidin mouse ear (500 μg/ear) is 97%.

In the case of `C=CCNc1cc(C)nc2cn(C)nc12` [Example 5, 7-Allylamino-2,5-dimethyl-pyrazolo[4,3-b]pyridine], the “% Inhibition (acute inflammatory swelling, ear weight)” value with cantharidin mouse ear (200 μg/ear) came to 68%. In addition, the “% Inhibition (inflammatory swelling, ear weight)” value in experiment [1] (200 μg/ear) was found to be 71%.

`C=CCNc1ccnc2cn[nH]c12` [Example 7, 7-Allylamino-1H-pyrazolo[4,3-b]pyridine]: the “% Inhibition (acute inflammatory swelling, ear weight)” value with cantharidin mouse ear (500 μg/ear) was 83%.

For `C=CCNc1cc(C)nc2cn[nH]c12` [Example 1, 7-Allylamino-5-methyl-1H-pyrazolo[4,3-b]pyridine], in the experiment on 5-Lipoxygenase, the “inhibition (decrease in formation of 5-HETE and 5,12-diHETE)” value was 39%. For the same compound, in the experiment on cantharidin mouse ear (200 μg/ear), the “% Inhibition (acute inflammatory swelling, ear weight)” value came to 88%. Moreover, the “% Inhibition (inflammatory swelling, ear weight)” value in experiment [1] (200 μg/ear) was determined as 62%.

Regarding `Cc1cc(NCCO)c2[nH]ncc2n1` [Example 3, 7-[2-Hydroxyethylamino]-5-methyl-1H-pyrazolo[4,3-b]pyridine], the “% Inhibition (acute inflammatory swelling, ear weight)” value with cantharidin mouse ear (200 μg/ear) was found to be 76%. The “% Inhibition (inflammatory swelling, ear weight)” value in experiment [1] (200 μg/ear) is 65%.

As for `Cc1cc(NCCCO)c2[nH]ncc2n1` [Example 2, 7-[3-hydroxypropylamino]-5-methyl-1H-pyrazolo[4,3-b]pyridine], the “% Inhibition (acute inflammatory swelling, ear weight)” value in the experiment on cantharidin mouse ear (200 μg/ear) came to 82%. Also, the “% Inhibition (inflammatory swelling, ear weight)” value in experiment [1] (500 μg/ear) was 82%.

The record behind these values is patent US4670432A, “Pyrazolopyridine derivatives useful in treating inflammation and allergic conditions” (Beecham Group p.l.c., priority 1984, dated 1987).
